{"source": "paper PMC4440585", "about": "(Biochemistry, 2015)", "target": "mitochondrial complex I (Rattus norvegicus, UniProt A6K8N6+P03889+Q641Y2)", "experiment": "NADH oxidation at […] nm, NADH:ubiquinone-1 activity of solubilized mitochondria", "assay_type": "biochemical", "settings": "read-out: % inhibition at 25 mM"}
{"smiles": "CN(C)C(=N)NC(=N)N", "note": "[metformin]", "values": [{"measurement": "inhibition at 25000 µM", "value": 12.1, "unit": "%"}]}
